Results: PMC4785407, “Reduction Impairs the Antibacterial Activity but Benefits the LPS Neutralization Ability of Human Enteric Defensin 5” (Scientific Reports, 2016)
“Also recorded” adds a separate entry of the source. Bridge positions count the residues as written; N and C are the ends. Peptide text beside a SMILES is read from it.

Assays:
[1] = test system: Enterococcus faecalis (ATCC 29212); experiment: virtual colony count assay, E. faecalis; conditions: HD5OX vs HD5RED
[2] = Isothermal titration calorimetry (ITC), peptides and LPS; format: binding; conditions: for interaction with LPS (heat release): 1 mg/mL peptide, 10 μg/mL LPS, 25 °C, repeated three times
Procedure: Interactions between peptides and LPS were monitored using a MicroCal ITC200 system (Malvern, UK) at 25 °C. The concentration of the peptides in the syringe was 1 mg/mL (40 μL). LPS was prepared in sterile water at a concentration of 10 μg/mL (300 μL per cell). Twenty injections (0.2 μL for the first injection and 2 μL for the remaining injections) were applied at 120 s intervals and at a stirring rate of 1,000 rpm. The data were processed by subtracting the baseline heat release from titrations of sterile water into LPS and from 20 mM DTT into LPS. The experiment was repeated three times.

[3] = test system: E. coli ML35 inner membrane; experiment: Inner membrane permeabilization (ONPG); format: cell-based; conditions: 6.25 and 12.5 μg/mL, 37 °C, 2 h, absorbance 405 nm, vs HD5OX
Procedure: The production of 2-nitrophenol (ONP), a marker of inner membrane penetration, was determined by measuring the absorbance at 405 nm.

E. coli ML35 cells = experiment: Membrane depolarization, flow cytometry DiBAC4(3); conditions: 6.25 μg/mL; for DP (depolarized cells): 37 °C, 1 h, DiBAC4(3) flow cytometry, representative scatter plot
[4] = Hydrophobicity of the Trx reduction product (LC-MS); format: physicochemical; conditions: linear gradient of 5–45% acetonitrile with 0.1% TFA, vs HD5OX
Procedure: (§1) A mixture of 30 μM HD5OX, 15 μM human thioredoxin (Trx, Prospec PRO569), 500 nM rat liver thioredoxin reductase (TrxR, Sigma T9698), 1 mM NADPH (Sigma N5130), and 2 mM EDTA was incubated in 100 mM sodium phosphate buffer (pH 7.0) at room temperature for 1 h. The reaction was quenched by adding 6% trifluoroacetic acid (TFA). The solution was then centrifuged (10,000 g × 10 min) at 4 °C and analyzed with an Agilent 6410 liquid chromatography-mass spectrometry (LC-MS) instrument using a linear gradient of 5–45% acetonitrile that contained 0.1% TFA.

[5] = test system: interaction between LPS and LBP (mouse LBP); experiment: LPS-binding protein (LBP) block assay; format: biochemical; conditions: for effect on the interaction between LPS and LBP: 50 μg/mL peptide, mouse LBP 60 ng/mL, biotinylated LPS 50 ng/mL
Procedure: The effects of peptides on the interaction between LPS and low concentrations of LBP were determined as previously described. Briefly, the plates of a LBP ELISA kit (Boster EK1274) were blocked by the incubation of 1% BSA prepared in 10 mM sodium phosphate buffer (pH 7.4) at 37 °C for 1 h, which were subsequently washed with 0.1% Tween-20. Aliquots of 100 μL of mouse LBP (Sigma SRP6034, 60 ng/mL) were added and incubated at 37 °C for 1.5 h. Peptides were prepared in sterile water, with concentrations of 12.5, 25, and 50 μg/mL, respectively. Biotinylated LPS (50 ng/mL) was added in the absence or presence of peptides (pre-incubated at 37 °C for 30 min). Polymyxin B (200 ng/mL) was used as a positive control. The binding of LPS to LBP was determined using a chromogenic reaction between HRP-conjugated streptavidin (Boster BA1088) and TMB (Sigma 860336). Data were processed by subtracting the absorbance in the absence of LPS. Statistical significance was determined by the Student−Newman−Keuls multiple comparisons test.
Figure 5. The efficiencies of peptides in blocking the interaction between LPS and LBP. A LBP ELISA plate was blocked by 1% BSA and subsequently washed with 0.1% Tween-20. Aliquots of 100 μL of the mouse LBP (60 ng/mL) was added and incubated at 37°C for 1.5 h. Peptides were prepared in sterile water, with concentrations of 12.5, 25, and 50 μg/mL, respectively. Biotinylated LPS (50 ng/mL) was then added in the absence or presence of peptides (pre-incubated at 37°C for 30 min). Data were processed by subtracting the absorbance in the absence of biotinylated LPS. Statistical significance was determined by the Student−Newman−Keuls multiple comparisons test. n.s, not significant; **, p < 0.01, relative to the value of the group solely treated with LPS.

[6] = test system: E. coli ML35 (ATCC 43827); experiment: virtual colony count assay, E. coli ML35; format: cell-based; conditions: for LD50 (Lethal Dose that kills 50% of bacteria) / LD90 (Lethal Dose that kills 90% of bacteria): ATCC 43827 E. coli ML35, 1 × 10^6 CFU/mL, 10 mM sodium phosphate buffer pH 7.4, 1% TSB, 37 °C, 1 h, duplicate, repeated three times
Procedure: Figure 3 Reduction attenuates the antibacterial activity of HD5OX against Gram-negative bacteria. […] Peptides were prepared in sterile water, with the final concentrations of 0.78, 1.56, 3.13, 6.25, 12.5, and 25 μg/mL. […] Zero survival points are not plotted.

HIV gp-120 = conditions: cited from earlier work
[7] = cited from earlier work
Text: Upon examining the biochemical properties of synthetic IDRs, the structural flexibility was noted. For example, the bovine bactenecin linear derivative 1018 adopts various folds in different media, relative to the natural peptide, to adapt to different functions. […] It can be exp ...

bacteria = conditions: among the α defensins; cited from earlier work
Text: Oxidized human defensin 5 (HD5OX), a 32-residue α defensin, is stored in the secretory granules of Paneth cells in the small intestine as a propeptide (E20-R94) and is processed by anionic and/or meso isoforms of trypsin during secretion or shortly thereafter at a cleavage site between R62 and A63[6]. […] We have previously prepared bioactive HD5OX using Pichia pastoris and design ... || HD5OX is an endogenous bactericidal agent.

[8] = test system: intestinal epithelial cells; conditions: cited from earlier work
Text: (§2) Human defensins are also noted for their immunoregulatory properties. […] Additionally, some defensins are able to suppress the pro-inflammatory effect of bacterial lipopolysaccharide (LPS). For example, H ...

CD4^+T cells = conditions: cited from earlier work
Text: as §2

human thioredoxin (Trx) = experiment: HD5OX reduction by thioredoxin in vitro, LC-MS; format: biochemical; conditions: 30 μM HD5OX, 15 μM human Trx, 500 nM rat liver TrxR, 1 mM NADPH, 2 mM EDTA, pH 7.0, room temperature, 1 h
Procedure: as §1

[9] = test system: anthrax lethal factor (LF); conditions: cited from earlier work

SMILES	efficiency against Gram-positive E. faecalis, relative [1]	interaction with LPS (heat release) [2]	LPS-binding, relative ([2]; weight ratios ≥8.0, vs HD5OX)	inner membrane disintegration [3]	DP (depolarized cells) (E. coli ML35 cells) [%]	membrane depolarization, relative (E. coli ML35 cells; HD5RED vs HD5OX, mean of three independent experiments)	hydrophobicity of product [4]	effect on the interaction between LPS and LBP [5]	LBP-blocking, dose dependence ([5]; 12.5, 25, and 50 μg/mL)	LD50 (Lethal Dose that kills 50% of bacteria) [6] [µg/mL]	LD90 (Lethal Dose that kills 90% of bacteria) [6] [µg/mL]	fold of concentration needed to inactivate 90% relative to HD5OX ([6]; E. coli ML35 ATCC 43827, higher than HD5OX)	binding and inhibition of HIV gp-120 (HIV gp-120)	LPS binding [7]	antibacterial activity (bacteria)	IL-8 production [8]	IL-2 production (CD4^+T cells)	reduction by Trx (human thioredoxin (Trx))	antibacterial action against E. coli ML35, relative ([6]; virtual colony count, 0.78-25 μg/mL, HD5OX vs HD5RED)	binding and inhibition of anthrax lethal factor [9]
CC[C@H](C)[C@H](NC(=O)[C@H](CCC(=O)O)NC(=O)[C@H](CS)NC(=O)[C@@H](NC(=O)CNC(=O)[C@H](CO)NC(=O)[C@H](CC(C)C)NC(=O)[C@H](CO)NC(=O)[C@H](CCC(=O)O)NC(=O)[C@H](CCCNC(=N)N)NC(=O)[C@@H](NC(=O)[C@H](C)NC(=O)[C@H](CS)NC(=O)[C@H](CCCNC(=N)N)NC(=O)CNC(=O)[C@@H](NC(=O)[C@H](CCCNC(=N)N)NC(=O)[C@H](CS)NC(=O)[C@H](Cc1ccc(O)cc1)NC(=O)[C@H](CS)NC(=O)[C@@H](NC(=O)[C@H](C)N)[C@@H](C)O)[C@@H](C)O)[C@@H](C)O)C(C)C)C(=O)N[C@@H](CO)C(=O)NCC(=O)N[C@@H](CCCNC(=N)N)C(=O)N[C@@H](CC(C)C)C(=O)N[C@@H](Cc1ccc(O)cc1)C(=O)N[C@@H](CCCNC(=N)N)C(=O)N[C@@H](CC(C)C)C(=O)N[C@@H](CS)C(=O)N[C@@H](CS)C(=O)N[C@@H](CCCNC(=N)N)C(=O)O [HD5RED] (H-ATCYCRTGRCATRESLSGVCEISGRLYRLCCR-OH)	less than HD5OX	heat release was higher than that of HD5OX	much stronger than that of HD5OX	attenuated potency for disintegrating the bacterial inner membrane	2.04	less efficiency of HD5RED in inducing membrane depolarization relative to HD5OX; also recorded: significantly lower than that of HD5OX	increased hydrophobicity	significantly inhibited the LPS-LBP interaction	dose-dependent LBP-blocking	9.9 ± 0.6	22.5 ± 2.3	1.9 -fold	–	–	–	–	–	–	–	–
CC[C@H](C)[C@@H]1NC(=O)[C@H](CCC(=O)O)NC(=O)[C@@H]2CSSC[C@@H]3NC(=O)[C@H](Cc4ccc(O)cc4)NC(=O)[C@@H](NC(=O)[C@@H](NC(=O)[C@H](C)N)[C@@H](C)O)CSSC[C@@H](C(=O)N[C@@H](CCCNC(=N)N)C(=O)O)NC(=O)[C@H](CSSC[C@H](NC(=O)[C@H](CCCNC(=N)N)NC(=O)CNC(=O)[C@H]([C@@H](C)O)NC(=O)[C@H](CCCNC(=N)N)NC3=O)C(=O)N[C@@H](C)C(=O)N[C@@H]([C@@H](C)O)C(=O)N[C@@H](CCCNC(=N)N)C(=O)N[C@@H](CCC(=O)O)C(=O)N[C@@H](CO)C(=O)N[C@@H](CC(C)C)C(=O)N[C@@H](CO)C(=O)NCC(=O)N[C@@H](C(C)C)C(=O)N2)NC(=O)[C@H](CC(C)C)NC(=O)[C@H](CCCNC(=N)N)NC(=O)[C@H](Cc2ccc(O)cc2)NC(=O)[C@H](CC(C)C)NC(=O)[C@H](CCCNC(=N)N)NC(=O)CNC(=O)[C@H](CO)NC1=O [HD5OX, Oxidized human defensin 5] (H-ATCYCRTGRCATRESLSGVCEISGRLYRLCCR-OH; disulfide 3-31, 5-20, 10-30; N-terminus and C-terminus assumed)	–	exothermically interacted with 10 μg/mL of LPS	–	–	31.8	–	–	less effect on the interaction between LPS and LBP	–	4.7 ± 0.8	11.6 ± 1.7	–	efficiently bind and inhibit	can bind LPS	widest spectrum of antibacterial activity among the α defensins	can induce the production of IL-8	can induce the production of IL-8 and IL-2	Trx catalyzed the reduction of HD5OX in vitro	more potent action against these bacteria than HD5RED	efficiently bind and inhibit anthrax lethal factor
